Results on one compound are retold here after US5840697A, “Peptide inhibitors of calmodulin” (Torrey Pines Institute for Molecular Studies, priority 1996, dated 1998).

By IC50 is commonly meant the concentration that gives 50% inhibition.

Structures are written as SMILES. Where two headings read alike, the source gives them in different places. Square brackets hold non-standard residues; d marks the D form. Peptide text beside a SMILES is read from it.

In this assay the target is calmodulin (Homo sapiens, UniProt P0DP23). Description: calcium-dependent phosphodiesterase assay (calmodulin activity). The format is biochemical. A digest of the protocol:
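Calmodulin (5 units) stimulation of Ca2+-activated phosphodiesterase measured by coupling cAMP→5'-AMP to 5'-nucleotidase, with released Pi read at 660 nm after ammonium molybdate reaction.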

Consider `CC[C@@H](C)[C@@H](NC(=O)[C@@H](CCCNC(=N)N)NC(=O)[C@@H](Cc1c[nH]c2ccccc12)NC(=O)[C@@H](CC(C)C)NC(C)=O)C(=O)N[C@H](CC(C)C)C(=O)N[C@H](Cc1c[nH]c2ccccc12)C(N)=O` [Ac-(D)Leu-(D)Trp-(D)Arg-(D)Ile-(D)Leu-(D)Trp-NH2] (Ac-[dL][dW][dR][dI][dL][dW]-NH2), for which the IC50 by setting is: (Table I, assayed at 75, 50 and 12.5 μM, average of repeated assays, read-out: Average IC50) 5.4 µM; (Table III, in the presence of calmodulin, read-out: IC50 (μM) for calmodulin) 7.1 µM. In addition, the SPECIFICITY (comparison of IC50 for phosphodiesterase with IC50 for calmodulin) turned out to be 17.
